Assay results as given in ChEMBL document CHEMBL2086272, “Anticlastogenic effect in human lymphocytes by the sodium salt of 3,4-secoisopimar-4(18),7,15-trien-3-oic acid” (J Nat Prod, 2012).

Legend:
[1] = tested on: PBL; test: Cytotoxicity in human PBL assessed as nuclear division index at 33 uM co-treated with ethyl methanesulfonate (reference value: 1.65 +/- 0.06 nuclear division index); type: cell-based
[2] = tested on: PBL; test: Antimutagenic activity in human PBL assessed as inhibition of colcemid-induced frequency of micronucleus per 1000 binucleated lymphocyte cells at 0.054 uM treated after treatment with colcemid by cytokinesis blocking technique (reference value: 3.33 +/- 0.33 micronucleus frequency/1000 binucleated lymphocyte cells); type: functional
[3] = tested on: PBL; test: Cytotoxicity in human PBL assessed as nuclear division index at 330 uM treated after treatment with colcemid (reference value: 1.59 +/- 0.08 nuclear division index); type: cell-based
[4] = tested on: PBL; test: Antimutagenic activity in human PBL assessed as inhibition of ethyl methanesulfonate-induced frequency of micronucleus per 1000 binucleated lymphocyte cells at 1930 uM treated after treatment with ethyl methanesulfonate by cytokinesis blocking technique (reference value: 3.33 +/- 0.33 micronucleus frequency/1000 binucleated lymphocyte cells); type: functional
[5] = tested on: PBL; test: Antimutagenic activity in human PBL assessed as inhibition of ethyl methanesulfonate-induced frequency of micronucleus per 1000 binucleated lymphocyte cells at 330 uM pretreated before ethyl methanesulfonate by cytokinesis blocking technique (reference value: 3.33 +/- 0.88 micronucleus frequency/1000 binucleated lymphocyte cells); type: functional
[6] = tested on: PBL; test: Cytotoxicity in human PBL assessed as nuclear division index at 330 uM treated after treatment with ethyl methanesulfonate (reference value: 1.59 +/- 0.08 nuclear division index); type: cell-based
[7] = tested on: PBL; test: Antimutagenic activity in human PBL assessed as inhibition of ethyl methanesulfonate-induced frequency of micronucleus per 1000 binucleated lymphocyte cells at 1930 uM pretreated before ethyl methanesulfonate by cytokinesis blocking technique (reference value: 3.33 +/- 0.88 micronucleus frequency/1000 binucleated lymphocyte cells); type: functional
[8] = tested on: PBL; test: Antimutagenic activity in human PBL assessed as inhibition of ethyl methanesulfonate-induced frequency of micronucleus per 1000 binucleated lymphocyte cells at 0.3 uM co-treated with ethyl methanesulfonate by cytokinesis blocking technique (reference value: 4.00 +/- 0.41 micronucleus frequency/1000 binucleated lymphocyte cells); type: functional
[9] = tested on: PBL; test: Cytotoxicity in human PBL assessed as nuclear division index at 33 uM treated after treatment with colcemid (reference value: 1.59 +/- 0.08 nuclear division index); type: cell-based
[10] = tested on: PBL; test: Antimutagenic activity in human PBL assessed as inhibition of colcemid-induced frequency of micronucleus per 1000 binucleated lymphocyte cells at 330 uM treated after treatment with colcemid by cytokinesis blocking technique (reference value: 3.33 +/- 0.33 micronucleus frequency/1000 binucleated lymphocyte cells); type: functional
[11] = tested on: PBL; test: Cytotoxicity in human PBL assessed as nuclear division index at 33 uM pretreated before colcemid (reference value: 1.63 +/- 0.11 nuclear division index); type: cell-based
[12] = tested on: PBL; test: Genotoxicity in human PBL assessed as micronucleus frequency at 0.3 to 330 uM; type: toxicity, cell-based
[13] = tested on: PBL; test: Antimutagenic activity in human PBL assessed as inhibition of colcemid-induced frequency of micronucleus per 1000 binucleated lymphocyte cells at 0.054 uM co-treated with colcemid by cytokinesis blocking technique (reference value: 4.00 +/- 0.41 micronucleus frequency/1000 binucleated lymphocyte cells); type: functional
[14] = tested on: PBL; test: Antimutagenic activity in human PBL assessed as inhibition of colcemid-induced frequency of micronucleus per 1000 binucleated lymphocyte cells at 3.3 uM pretreated before colcemid by cytokinesis blocking technique (reference value: 3.33 +/- 0.88 micronucleus frequency/1000 binucleated lymphocyte cells); type: functional
[15] = tested on: PBL; test: Cytotoxicity in human PBL assessed as nuclear division index at 0.054 uM treated after treatment with colcemid (reference value: 1.59 +/- 0.08 nuclear division index); type: cell-based
[16] = tested on: PBL; test: Cytotoxicity in human PBL assessed as nuclear division index at 0.3 uM pretreated before ethyl methanesulfonate (reference value: 1.63 +/- 0.11 nuclear division index); type: cell-based
[17] = tested on: PBL; test: Cytotoxicity in human PBL assessed as nuclear division index at 1930 uM pretreated before ethyl methanesulfonate (reference value: 1.63 +/- 0.11 nuclear division index); type: cell-based
[18] = tested on: PBL; test: Cytotoxicity in human PBL assessed as nuclear division index at 330 uM co-treated with ethyl methanesulfonate (reference value: 1.65 +/- 0.06 nuclear division index); type: cell-based
[19] = tested on: PBL; test: Antimutagenic activity in human PBL assessed as inhibition of ethyl methanesulfonate-induced frequency of micronucleus per 1000 binucleated lymphocyte cells at 33 uM pretreated before ethyl methanesulfonate by cytokinesis blocking technique (reference value: 3.33 +/- 0.88 micronucleus frequency/1000 binucleated lymphocyte cells); type: functional
[20] = tested on: PBL; test: Antimutagenic activity in human PBL assessed as inhibition of colcemid-induced frequency of micronucleus per 1000 binucleated lymphocyte cells at 33 uM pretreated before colcemid by cytokinesis blocking technique (reference value: 3.33 +/- 0.88 micronucleus frequency/1000 binucleated lymphocyte cells); type: functional
[21] = tested on: PBL; test: Antimutagenic activity in human PBL assessed as inhibition of ethyl methanesulfonate-induced frequency of micronucleus per 1000 binucleated lymphocyte cells at 33 uM treated after treatment with ethyl methanesulfonate by cytokinesis blocking technique (reference value: 3.33 +/- 0.33 micronucleus frequency/1000 binucleated lymphocyte cells); type: functional
[22] = tested on: PBL; test: Cytotoxicity in human PBL assessed as nuclear division index at 0.054 uM pretreated before colcemid (reference value: 1.63 +/- 0.11 nuclear division index); type: cell-based
[23] = tested on: PBL; test: Antimutagenic activity in human PBL assessed as inhibition of ethyl methanesulfonate-induced frequency of micronucleus per 1000 binucleated lymphocyte cells at 33 uM co-treated with ethyl methanesulfonate by cytokinesis blocking technique (reference value: 4.00 +/- 0.41 micronucleus frequency/1000 binucleated lymphocyte cells); type: functional
[24] = tested on: PBL; test: Cytotoxicity in human PBL assessed as nuclear division index at 330 uM pretreated before colcemid (reference value: 1.63 +/- 0.11 nuclear division index); type: cell-based
[25] = tested on: PBL; test: Antimutagenic activity in human PBL assessed as inhibition of colcemid-induced frequency of micronucleus per 1000 binucleated lymphocyte cells at 3.3 uM co-treated with colcemid by cytokinesis blocking technique (reference value: 4.00 +/- 0.41 micronucleus frequency/1000 binucleated lymphocyte cells); type: functional
[26] = tested on: PBL; test: Antimutagenic activity in human PBL assessed as inhibition of ethyl methanesulfonate-induced frequency of micronucleus per 1000 binucleated lymphocyte cells at 3.3 uM treated after treatment with ethyl methanesulfonate by cytokinesis blocking technique (reference value: 3.33 +/- 0.33 micronucleus frequency/1000 binucleated lymphocyte cells); type: functional
[27] = tested on: PBL; test: Cytotoxicity in human PBL assessed as nuclear division index at 1930 uM treated after treatment with ethyl methanesulfonate (reference value: 1.59 +/- 0.08 nuclear division index); type: cell-based
[28] = tested on: PBL; test: Cytotoxicity in human PBL assessed as nuclear division index at 0.3 uM co-treated with colcemid (reference value: 1.65 +/- 0.06 nuclear division index); type: cell-based
[29] = tested on: PBL; test: Antimutagenic activity in human PBL assessed as inhibition of ethyl methanesulfonate-induced frequency of micronucleus per 1000 binucleated lymphocyte cells at 0.3 uM treated after treatment with ethyl methanesulfonate by cytokinesis blocking technique (reference value: 3.33 +/- 0.33 micronucleus frequency/1000 binucleated lymphocyte cells); type: functional

For `C=C[C@@]1(C)CC[C@H]2C(=CC[C@@H](C(=C)C)[C@]2(C)CCC(=O)[O-])C1.[Na+]`, the Activity [1] was 1.53, the Activity [2] was 12.25 and the Activity [3] was 1.56. The Activity [4] was 20.14, the Activity [5] was 4 and the Activity [6] was 1.31. It also gave an Activity [7] of 14, an Activity [8] of 4 and an Activity [9] of 1.56. The Activity [10] was 12.5, the Activity [11] was 1.31 and the Activity [12] was “Non-toxic”. For the same molecule, the Activity [13] was 24.78, the Activity [14] was 18.42 and the Activity [15] was 1.65. It also gave an Activity [16] of 1.46, an Activity [17] of 1.53 and an Activity [18] of 1.63. It also gave an Activity [19] of 3.75, an Activity [20] of 18 and an Activity [21] of 19.5. It also gave an Activity [22] of 1.52, an Activity [23] of 5.5 and an Activity [24] of 1.03. The Activity [25] was 21.25, the Activity [26] was 19.75 and the Activity [27] was 1.41. It also gave an Activity [28] of 1.37 and an Activity [29] of 19.25.
